Results reported in patent US12708630B2, “Combined therapy of 4′-thio-5-aza-2′-deoxycytidine and Venetoclax” (PINOTBIO, INC., priority 2021, dated 2026).

Assays:
Test in all cases: drug activity profiling cytotoxicity
Type in all cases: cell-based
5637 = 5637 cell line, Bladder; read-out: Aza-T-dCyd IC50
Method in brief: (§1)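 Aza-T-dCyd cytotoxicity was assessed by drug activity profiling across a panel of 200 cell lines, aimed at identifying a response biomarker.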

769-P = details: Homo sapiens; 769-P cell line, Kidney; read-out: Aza-T-dCyd IC50
Method in brief: as §1

A-704 = details: Homo sapiens, A704; A-704 cell line, Kidney; read-out: Aza-T-dCyd IC50
Method in brief: as §1

A172 = details: Homo sapiens, A 172; A172 cell line, CNS (Glioma); read-out: Aza-T-dCyd IC50
Method in brief: as §1

AGS = details: Homo sapiens; AGS cell line, Stomach; read-out: Aza-T-dCyd IC50
Method in brief: as §1

ARH-77 = details: Homo sapiens; ARH-77 cell line, B-cell lymphoma; read-out: Aza-T-dCyd IC50
Method in brief: as §1

CFPAC-1 = details: Homo sapiens; CFPAC-1 cell line, Pancreas; read-out: Aza-T-dCyd IC50
Method in brief: as §1

COR-L23 = details: Homo sapiens; COR-L23 cell line, Lung (NSCLC); read-out: Aza-T-dCyd IC50
Method in brief: as §1

Caki-2 = details: Homo sapiens; Caki-2 cell line, Kidney; read-out: Aza-T-dCyd IC50
Method in brief: as §1

DMS273 = details: Homo sapiens, DMS-273; DMS273 cell line, Lung (SCLC); read-out: Aza-T-dCyd IC50
Method in brief: as §1

DOHH-2 = details: Homo sapiens; DOHH-2 cell line, B-cell lymphoma; read-out: Aza-T-dCyd IC50
Method in brief: as §1

Detroit 562 = details: Homo sapiens; Detroit 562 cell line, Head and Neck; read-out: Aza-T-dCyd IC50
Method in brief: as §1

EB2 = details: Homo sapiens; EB2 cell line, Burkitt's lymphoma; read-out: Aza-T-dCyd IC50
Method in brief: as §1

EM-2 = details: Homo sapiens; EM-2 cell line, CML; read-out: Aza-T-dCyd IC50
Method in brief: as §1

FaDu = details: Homo sapiens; FaDu cell line, Head and Neck; read-out: Aza-T-dCyd IC50
Method in brief: as §1

HT-3 = details: Homo sapiens; HT-3 cell line, Female GU (Cervix); read-out: Aza-T-dCyd IC50
Method in brief: as §1

MALME3M = details: Homo sapiens, Malme-3M; MALME3M cell line, Skin (Melanoma); read-out: Aza-T-dCyd IC50
Method in brief: as §1

MOLT-4 = details: Homo sapiens; MOLT-4 cell line, ALL; read-out: Aza-T-dCyd IC50
Method in brief: as §1

NCI-H292 = details: Homo sapiens; NCI-H292 cell line, Lung (NSCLC); read-out: Aza-T-dCyd IC50
Method in brief: as §1

RPMI 8226 = details: Homo sapiens; RPMI 8226 cell line, B-cell myeloma; read-out: Aza-T-dCyd IC50
Method in brief: as §1

SCC-4 = details: Homo sapiens; SCC-4 cell line, Head and Neck; read-out: Aza-T-dCyd IC50
Method in brief: as §1

SK-BR-3 = details: Homo sapiens; SK-BR-3 cell line, Breast; read-out: Aza-T-dCyd IC50
Method in brief: as §1

SK-N-AS = details: Homo sapiens; SK-N-AS cell line, CNS (Neuroblastoma); read-out: Aza-T-dCyd IC50
Method in brief: as §1

SKOV3 = details: Homo sapiens, SK-OV-3; SKOV3 cell line, Female GU (Ovary); read-out: Aza-T-dCyd IC50
Method in brief: as §1

SU-DHL-4 = details: Homo sapiens; SU-DHL-4 cell line, B-cell lymphoma; read-out: Aza-T-dCyd IC50
Method in brief: as §1

SW1417 = details: Homo sapiens; SW1417 cell line, Colon; read-out: Aza-T-dCyd IC50
Method in brief: as §1

SW480 = details: Homo sapiens; SW480 cell line, Colon; read-out: Aza-T-dCyd IC50
Method in brief: as §1

SW962 = details: Homo sapiens, SW 962; SW962 cell line, Female GU (Vulva); read-out: Aza-T-dCyd IC50
Method in brief: as §1

SW982 = details: Homo sapiens; SW982 cell line, Sarcoma; read-out: Aza-T-dCyd IC50
Method in brief: as §1

Thp1 = details: Homo sapiens, THP-1; Thp1 cell line, AML; read-out: Aza-T-dCyd IC50
Method in brief: as §1

WiDr = details: Homo sapiens; WiDr cell line, Colon; read-out: Aza-T-dCyd IC50
Method in brief: as §1

SMILES: Nc1ncn([C@H]2CC(O)[C@@H](CO)S2)c(=O)n1 (stereo partly shown) [Aza-T-dCyd, 4′-thio-5-aza-2′-deoxycytidine]
- IC50 5637: 296 nM
- IC50 (769-P): 65.7 nM
- IC50 (A-704): > 10000 nM
- IC50 (A172): > 10000 nM
- IC50 (AGS): 58.4 nM
- IC50 (ARH-77): 413 nM
- IC50 (CFPAC-1): 1750 nM
- IC50 (COR-L23): 94.4 nM
- IC50 (Caki-2): 363 nM
- IC50 (DMS273): 5660 nM
- IC50 (DOHH-2): 609 nM
- IC50 (Detroit 562): 81.1 nM
- IC50 (EB2): 8190 nM
- IC50 (EM-2): 255 nM
- IC50 (FaDu): 208 nM
- IC50 (HT-3): 818 nM
- IC50 (MALME3M): 7450 nM
- IC50 (MOLT-4): 35 nM
- IC50 (NCI-H292): 194 nM
- IC50 (RPMI 8226): 3270 nM
- IC50 (SCC-4): 2860 nM
- IC50 (SK-BR-3): 9320 nM
- IC50 (SK-N-AS): 1170 nM
- IC50 (SKOV3): 2920 nM
- IC50 (SU-DHL-4): 17.5 nM
- IC50 (SW1417): > 10000 nM
- IC50 (SW480): 1580 nM
- IC50 (SW962): > 10000 nM
- IC50 (SW982): 171 nM
- IC50 (Thp1): 5120 nM
- IC50 (WiDr): 263 nM
